Patent publication US20240254138A1, “TRICYCLIC PYRIMIDINES AS CYCLIN-DEPENDENT KINASE 7 (CDK7) INHIBITORS” (JANSSEN PHARMACEUTICA NV, priority 2021, published 2024)
Read-outs that look alike come from different tables or passages of the source.

Legend:
[1] = tested on: RNA Polymerase II Serine 5 phosphorylation (Rpb1 CTD, downstream substrate of CDK7) in A549 cells; assay: Imaging-based cellular RNA PolII Ser5 phosphorylation assay in A549 cells; type: cell-based, human; conditions: Homo sapiens, A549, A549 cells, wild-type CDK7; RNA PolII Ser5 phosphorylation; averaged over all measurements; read-out: CDK7_A549 Wild-type CDK7 (pIC50) (converted)
Method in brief: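 A549 cells, seeded 1000/well in DMEM with 1% FBS and cultured 20 h, were treated with compound for 3 h at 37 °C. Ser5-phospho-Rpb1 CTD detected by immunofluorescence imaging after fixation and methanol permeabilization; IC50 from curve fit normalized to DMSO and 10 μM reference-compound controls.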

[2] = tested on: RNA Polymerase II Serine 5 phosphorylation in A549 cells overexpressing CDK7-mutant (C312S); assay: Imaging-based cellular RNA PolII Ser5 phosphorylation assay in A549 cells overexpressing CDK7-mutant (C312S); type: cell-based, human; conditions: Homo sapiens, A549, A549 cells overexpressing CDK7-mutant (C312S); RNA PolII Ser5 phosphorylation; averaged over all measurements; read-out: CDK7_A549 mutant hCDK7(pIC50) (converted)
Method in brief: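 A549 cells overexpressing CDK7 C312S (with endogenous wild-type CDK7) were treated with compound for 3 h at 37 °C in 1% FBS medium. Phospho-Rpb1 CTD Ser5 was immunostained after fixation and imaged. IC50 came from curve fit of % control, normalised to DMSO and 10 μM reference-compound controls.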

[3] = biological target: CDK7/cyclinH/MAT1 trimeric complex (Homo sapiens, UniProt P50613); assay: In vitro CDK7 assay, potency of irreversible covalent inhibitors (kinact/KI), coupled PK/LDH ADP readout at 340 nm; conditions: for Ki: CDK7 (20 nM enz.) (KI, μM), 20 nM enzyme; for kinact: read-out: CDK7 (20 nM enz.) (kinact, s^−1), 20 nM enzyme
Sequence of CDK7/cyclinH/MAT1 trimeric complex (P50613 whole entry): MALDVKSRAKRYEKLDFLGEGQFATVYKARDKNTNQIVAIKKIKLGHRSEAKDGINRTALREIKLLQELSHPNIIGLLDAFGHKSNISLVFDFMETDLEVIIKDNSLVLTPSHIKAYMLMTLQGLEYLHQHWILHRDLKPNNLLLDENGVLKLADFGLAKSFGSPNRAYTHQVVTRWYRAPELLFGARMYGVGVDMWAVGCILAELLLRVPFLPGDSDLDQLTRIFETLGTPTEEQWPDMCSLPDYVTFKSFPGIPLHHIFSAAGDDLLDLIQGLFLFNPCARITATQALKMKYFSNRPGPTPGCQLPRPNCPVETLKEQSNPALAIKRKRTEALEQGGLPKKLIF
Sequence of CDK7/cyclinH/MAT1 trimeric complex (P51946 whole entry partner): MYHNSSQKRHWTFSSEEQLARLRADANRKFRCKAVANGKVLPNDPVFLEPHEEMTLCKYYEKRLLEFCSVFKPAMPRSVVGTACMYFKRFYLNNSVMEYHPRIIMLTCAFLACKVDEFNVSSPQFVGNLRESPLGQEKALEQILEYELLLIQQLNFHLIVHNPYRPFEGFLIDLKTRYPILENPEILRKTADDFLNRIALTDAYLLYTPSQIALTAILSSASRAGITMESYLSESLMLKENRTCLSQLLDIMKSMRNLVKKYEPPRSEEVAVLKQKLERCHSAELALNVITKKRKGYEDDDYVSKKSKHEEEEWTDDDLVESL
Sequence of CDK7/cyclinH/MAT1 trimeric complex (P51948 whole entry partner): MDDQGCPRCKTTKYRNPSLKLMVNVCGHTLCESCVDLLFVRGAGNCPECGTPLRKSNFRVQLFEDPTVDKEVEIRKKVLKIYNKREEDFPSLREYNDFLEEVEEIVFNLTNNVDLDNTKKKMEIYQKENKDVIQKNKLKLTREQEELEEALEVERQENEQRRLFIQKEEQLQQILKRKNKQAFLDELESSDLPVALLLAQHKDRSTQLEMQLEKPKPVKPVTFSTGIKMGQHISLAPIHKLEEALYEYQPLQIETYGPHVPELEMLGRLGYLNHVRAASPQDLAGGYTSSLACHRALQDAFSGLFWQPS

[4] = read-out: CDK7 (20 nM enz.) (kinact/KI, M^−1*s^−1), 20 nM enzyme

Row | Compound | IC50 [1] | IC50 [2] | melting point | kinact/KI ([3]; read-out: CDK7 (20 nM enz.) (kobs/[I], M^−1*s^−1), 20 nM enzyme) | Ki [3] | kinact [3] | kinact/KI [3, 4]
1 | C=CC(=O)N1CC(N2CCC(c3cc4c(c(C#N)n3)OCc3c(N5CCOCC5)ccnc3N4)CC2)C1 [Compound 306] | 123 nM | > 10000 nM | 256.7 °C | 1170 M⁻¹ s⁻¹ |  |  | 
2 | C=C(C(=O)N1CC(N2CCC(c3cc4c(c(C)n3)O[C@@H](C)c3c(N5CCOCC5)ccnc3N4)CC2)C1)n1cccn1 (single isomer, unassigned) [Compound 523] | 97.7 nM | > 10000 nM | 148 °C |  | 0.0496 µM | 1.97e-05 s⁻¹ | 398 M⁻¹ s⁻¹
3 | C=CC(=O)N1CC(N2CCC(c3cc4c(c(C5CC5)n3)OCc3c(N5CCOCC5)ccnc3N4)CC2)C1 [Compound 272] | 44.7 nM | > 10000 nM | 189.9 °C |  | 0.0212 µM | 2.13e-05 s⁻¹ | 1010 M⁻¹ s⁻¹
4 | CC#CC(=O)N1CC(N2CCC(c3cc4c(c(C)n3)OCc3c(N5CCOCC5)ccnc3N4)CC2)C1 [Compound 279] | 138 nM | > 10000 nM | 178.5 °C |  | 0.233 µM | 2.96e-05 s⁻¹ | 127 M⁻¹ s⁻¹
5 | C=C(C(=O)N1CC(N2CCC(c3cc4c(c(C)n3)O[C@H](C)c3c(N5CCOCC5)ccnc3N4)CC2)C1)n1cccn1 (single isomer, unassigned) [Compound 526] | 14.1 nM | > 2510 nM | 131.3 °C |  | 0.0767 µM | 2.61e-05 s⁻¹ | 340 M⁻¹ s⁻¹
6 | C=CC(=O)N1CC[C@H](N2CCC(c3ccc4c(c3)Nc3ncc(F)c(N5CCOCC5)c3CO4)CC2)C1 (single isomer, unassigned) [Compound 222] | 97.7 nM | > 10000 nM | 138 °C |  | 0.18 µM | 7.49e-05 s⁻¹ | 416 M⁻¹ s⁻¹
7 | C=CC(=O)N1CC[C@@H](N2CCC(c3ccc4c(c3)Nc3ncc(F)c(N5CCOCC5)c3CO4)CC2)C1 (single isomer, unassigned) [Compound 223] | 41.7 nM | 7590 nM | 106 °C |  | 0.127 µM | 6.11e-05 s⁻¹ | 480 M⁻¹ s⁻¹

Further lines, results first:

Row | IC50 [1] | IC50 [2] | melting point | kinact/KI ([3]; read-out: CDK7 (20 nM enz.) (kobs/[I], M^−1*s^−1), 20 nM enzyme) | Ki [3] | kinact [3] | kinact/KI [3, 4] | Compound
8 | 51.3 nM | > 3980 nM | > 300 °C |  | 0.168 µM | 5.18e-05 s⁻¹ | 308 M⁻¹ s⁻¹ | C=CC(=O)N1CC(N2CCC(c3cc4c(cn3)O[C@H](C)c3c(N5CCOCC5)ccnc3N4)CC2)C1 (single isomer, unassigned) [Compound 263]
9 | 1070 nM | > 10000 nM | 236.7 °C |  | 0.934 µM | 4.13e-05 s⁻¹ | 44.2 M⁻¹ s⁻¹ | C#Cc1cc(C2CCN(C3CN(C(=O)C=C)C3)CC2)cc2c1O[C@H](C)c1c(N3CCOCC3)ccnc1N2 (single isomer, unassigned) [Compound 268]
10 | 209 nM | > 10000 nM | 220.7 °C |  | 4.52 µM | 0.000132 s⁻¹ | 29.2 M⁻¹ s⁻¹ | C=CC(=O)N1CC(N2CCC(c3cc(C#N)c4c(c3)Nc3nccc(N5CCOCC5)c3[C@H](C)O4)CC2)C1 (single isomer, unassigned) [Compound 353]
